Assay results taken from PubChem BioAssay AID1963972 (Molecular Pharmacology Branch, DTP, NCI, 2024).

Test system: 945468-187-T-J2-PDC spheroids viability
Test: Anticancer human tumor 945468-187-T-J2-PDC patient-derived rectal carcinoma cell line growth inhibition [PI3K]
Conditions: spheroids with HUVEC and MSC; for viability, T/C: stronger effect = lower value
Procedure, shortened: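 Multi-cell spheroids combine tumor cells with HUVEC and human MSCs, treated with targeted agents alone or with inavolisib, alpelisib, duvelisib or copanlisib. Concentrations fall in half-log steps from at or near clinical Cmax, or from 10 microM where Cmax is unknown; viability read-out.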
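Note: spheroids exposed to compounds for seven days before reading.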

## CC(Cn1ccc(-c2ccc(C#N)c(Cl)c2)n1)NC(=O)c1cc(C(C)O)[nH]n1 (centres undefined)
Compound 3.16 µM
  viability, T/C: 93.7% [middle of 4 runs]
Curve of compound
  IC50: > 10 µM

## CCCS(=O)(=O)Nc1ccc(F)c(C(=O)c2c[nH]c3ncc(-c4ccc(Cl)cc4)cc23)c1F + Cc1nc(NC(=O)N2CCCC2C(N)=O)sc1-c1ccnc(C(C)(C)C(F)(F)F)c1
Curve of first compound, second compound 0.0316 µM
  IC50: 4.36 µM
Curve of first compound, second compound 0.1 µM
  IC50: 3.88 µM
Curve of first compound, second compound 0.316 µM
  IC50: 5.58 µM
Curve of first compound, second compound 1 µM
  IC50: 4.71 µM
Curve of first compound, second compound 3.16 µM
  IC50: 4.23 µM
Curve of first compound, second compound 10 µM
  IC50: 4.46 µM
Second compound 0.0316 µM, first compound 0.0316 µM
  viability, T/C: 84.6%
Second compound 0.0316 µM, first compound 0.1 µM
  viability, T/C: 96.3%
Second compound 0.0316 µM, first compound 0.316 µM
  viability, T/C: 67.6%
Second compound 0.0316 µM, first compound 1 µM
  viability, T/C: 80.9%
Second compound 0.0316 µM, first compound 3.16 µM
  viability, T/C: 68.5%
Second compound 0.0316 µM, first compound 10 µM
  viability, T/C: 2.55%
Second compound 0.1 µM, first compound 0.0316 µM
  viability, T/C: 87.3%
Second compound 0.1 µM, first compound 0.1 µM
  viability, T/C: 66.7%
Second compound 0.1 µM, first compound 0.316 µM
  viability, T/C: 86.7%
Second compound 0.1 µM, first compound 1 µM
  viability, T/C: 108%
Second compound 0.1 µM, first compound 3.16 µM
  viability, T/C: 59.9%
Second compound 0.1 µM, first compound 10 µM
  viability, T/C: 4.2%
Second compound 0.316 µM, first compound 0.0316 µM
  viability, T/C: 98.5%
Second compound 0.316 µM, first compound 0.1 µM
  viability, T/C: 84.8%
Second compound 0.316 µM, first compound 0.316 µM
  viability, T/C: 74.3%
Second compound 0.316 µM, first compound 1 µM
  viability, T/C: 84.8%
Second compound 0.316 µM, first compound 3.16 µM
  viability, T/C: 81.9%
Second compound 0.316 µM, first compound 10 µM
  viability, T/C: 17.3%
Second compound 1 µM, first compound 0.0316 µM
  viability, T/C: 78%
Second compound 1 µM, first compound 0.1 µM
  viability, T/C: 84.7%
Second compound 1 µM, first compound 0.316 µM
  viability, T/C: 71.3%
Second compound 1 µM, first compound 1 µM
  viability, T/C: 67.5%
Second compound 1 µM, first compound 3.16 µM
  viability, T/C: 73.7%
Second compound 1 µM, first compound 10 µM
  viability, T/C: 5.17%
Second compound 3.16 µM, first compound 0.0316 µM
  viability, T/C: 68.8%
Second compound 3.16 µM, first compound 0.1 µM
  viability, T/C: 66%
Second compound 3.16 µM, first compound 0.316 µM
  viability, T/C: 78.5%
Second compound 3.16 µM, first compound 1 µM
  viability, T/C: 72.5%
Second compound 3.16 µM, first compound 3.16 µM
  viability, T/C: 63.4%
Second compound 3.16 µM, first compound 10 µM
  viability, T/C: 8.66%
Second compound 10 µM, first compound 0.0316 µM
  viability, T/C: 60.4%
Second compound 10 µM, first compound 0.1 µM
  viability, T/C: 61.4%
Second compound 10 µM, first compound 0.316 µM
  viability, T/C: 80%
Second compound 10 µM, first compound 1 µM
  viability, T/C: 55.6%
Second compound 10 µM, first compound 3.16 µM
  viability, T/C: 70.2%
Second compound 10 µM, first compound 10 µM
  viability, T/C: 13.4%
